Source: patent US11254640B2, “N-substituted indoles and other heterocycles for treating brain disorders” (The Regents of the University of California, priority 2019, dated 2022)
“Also recorded” adds a separate entry of the source. Where a name gives a salt, the structure may show the parent alone. Read-outs that look alike come from different tables or passages of the source.

Assays:
cortical neurons = experiment: Dendritogenesis assay, Sholl analysis; format: cell-based, rat; details: for Emax at 10 µM: Rattus norvegicus, Cortical neurone, Nmax with vehicle (DMSO) = 0% and ketamine = 100%, read-out: % efficacy in sholls
Excerpt: Dendritogenesis Assays. Phenotypic screening has historically proven more successful than target-based approaches for identifying drugs with novel mechanisms of action. Having established a simple and robust method for accessing isoDMT analogs, tested next was their ability to increase dendritic arbor complexity in cultures of cortical neurons using a phenotypic assay. Following treatment, neurons were fixed and visualized using an antibody against MAP2—a cytoskeletal protein localized to the somatodendritic compartment of neurons. Sholl analysis was then performed, and the maximum number of crossings (Nmax) was used as a quantitative metric of dendritic arbor complexity. For statistical comparisons between specific compounds, the raw Nmax values were compared. Percent efficacies were determined by setting the Nmax values for the vehicle (DMSO) and positive (ketamine) controls equal to 0% and 100%, respectively.
Animals. For the dendritogenesis experiments, timed pregnant Sprague Dawley rats were obtained from Charles River Laboratories (Wilmington, Mass.). For the head-twitch response assay, male and female C57BL/6J mice were obtained from Jackson Laboratory (Sacramento, Calif.). Mice were housed in a temperature and humidity-controlled room maintained on a 12-h light/dark cycle in groups of 4-5 (same sex). Animals weighed between 17 and 30 g at the time of the experiments. All experimental procedures involving rodents were approved by the UC Davis Institutional Animal Care and Use Committee (IACUC) and adhered to principles described in the National Institutes of Health Guide for the Care and Use of Laboratory Animals. The University of California, Davis and the University of California, San Francisco are accredited by the Association for Assessment and Accreditation of Laboratory Animal Care International (AAALAC).
Dendritogenesis—Sholl Analysis. Dendritogenesis experiments were performed following a previously published method with slight modifications. Neurons were plated in 96-well format (200 μL of media per well) at a density of approximately 15,000 cells/well in Neurobasal (Life Technologies) containing 1% penicillin-streptomycin, 10% heat-inactivated fetal bovine serum, and 0.5 mM glutamine. After 24 h, the medium was replaced with Neurobasal containing 1× B27 supplement (Life Technologies), 1% penicillin-streptomycin, 0.5 mM glutamine, and 12.5 μM glutamate. After 3 days in vitro (DIV3), the cells were treated with compounds. All compounds tested in the dendritogenesis assays were treated at 10 μM unless noted otherwise. Stock solutions of the compounds in DMSO were first diluted 100-fold in Neurobasal before an additional 10-fold dilution into each well (total dilution=1:1000; 0.1% DMSO concentration). Treatments were randomized. After 1 h, the media was removed and replaced with new Neurobasal media containing 1× B27 supplement, 1% penicillin-streptomycin, 0.5 mM glutamine, and 12.5 μM glutamate. The cells were allowed to grow for an additional 71 h. At that time, neurons were fixed by removing 80% of the media and replacing it with a volume of 4% aqueous paraformaldehyde (Alfa Aesar) equal to 50% of the working volume of the well. Then, the cells were incubated at room temperature for 20 min before the fixative was aspirated and each well washed twice with DPBS. Cells were permeabilized using 0.2% Triton X-100 (ThermoFisher) in DPBS for 20 minutes at room temperature without shaking. Plates were blocked with antibody diluting buffer (ADB) containing 2% bovine serum albumin (BSA) in DPBS for 1 h at room temperature. Then, plates were incubated overnight at 4° C. with gentle shaking in ADB containing a chicken anti-MAP2 antibody (1:10,000; EnCor, CPCA-MAP2). The next day, plates were washed three times with DPBS and once with 2% ADB in DPBS. […]

5HT2A sensor [1] = experiment: 5HT2A sensor assay, agonist mode (sLight1.3s HEK293T stable line); format: cell-based; details: percent relative to 5-HT at 100 uM; for 5HT2A Agonist mean @ 100 nM (%): 100 nM compound; for 5HT2A Agonist mean @ 10 μM (%): 10 μM compound; for 5HT2A Agonist mean @ 100 μM (%): 100 μM compound
How it was run: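 Agonist mode in HEK293T cells stably expressing the sLight1.3 5HT2A sensor, washed into HBSS; compounds at final 100 μM, 10 μM and 100 nM (0.1% DMSO), triplicate wells. Membrane fluorescence (ex 460, em 512-542 nm) imaged before and after addition; dFF=(Fsat−Fapo)/Fapo, expressed as percent activation (DMSO=0, 5HT=100).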

rat cortical neurons = experiment: Neurite outgrowth assay; format: cell-based; details: Cortical neurone, 1 hour treatment at DIV 4, analysed DIV 7, fold vs DMSO control
How it was run: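 Embryonic day 18 rat cortical neurons, 20,000 cells/well in Neurobasal/B27, were exposed at DIV 4 to 10 μM compound for 1 hour, then washed out. At DIV 7, β-III-tubulin immunostaining and automated imaging gave neurite length, branch points, root and extremity counts, reported as fold-change versus DMSO; triplicates.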

5HT2A sensor [2] = experiment: 5HT2A sensor assay, antagonist mode (sLight1.3s HEK293T stable line); format: cell-based; details: relative to 5-HT at 100 nM; for 5HT2A Antagonist mean @ 100 nM (%): 100 nM compound; for 5HT2A Antagonist mean @ 10 μM (%): 10 μM compound; for 5HT2A Antagonist mean @ 100 μM (%): 100 μM compound
How it was run: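 Inactivation score is computed from membrane dFF as (dFF(compound+5HT)−dFF(5HT))/dFF(5HT), with HBSS-only fluorescence as Fapo. Final concentrations: 5-HT 100 nM added first, then compound at 100 nM, 10 μM or 100 μM in 0.1% DMSO. Triplicates; FITC imaging, 5 fields per well.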

5HT2A = molecular target: T1, 5HT2A (Homo sapiens, UniProt P28223); experiment: Calcium flux assay (Calcium secondary messenger pathway); format: cell-based; details: agonist mode
T1 construct: expressed in transfected cells
How it was run: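 Gq-coupled calcium mobilization in cells stably expressing 5HT2A, loaded 30–60 min at 37 °C with calcium-sensitive dye in HBSS/20 mM Hepes with 2.5 mM probenecid. Compound added 5 s into a 2-min FLIPR Tetra fluorescence read at room temperature; % activity relative to vehicle and maximal control-ligand RFU.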

[3] = read-out: Neurite Average Length @ 10 μM
[4] = read-out: Neurite Branch Points: @ 10 μM

T1 sequence (P28223 whole entry): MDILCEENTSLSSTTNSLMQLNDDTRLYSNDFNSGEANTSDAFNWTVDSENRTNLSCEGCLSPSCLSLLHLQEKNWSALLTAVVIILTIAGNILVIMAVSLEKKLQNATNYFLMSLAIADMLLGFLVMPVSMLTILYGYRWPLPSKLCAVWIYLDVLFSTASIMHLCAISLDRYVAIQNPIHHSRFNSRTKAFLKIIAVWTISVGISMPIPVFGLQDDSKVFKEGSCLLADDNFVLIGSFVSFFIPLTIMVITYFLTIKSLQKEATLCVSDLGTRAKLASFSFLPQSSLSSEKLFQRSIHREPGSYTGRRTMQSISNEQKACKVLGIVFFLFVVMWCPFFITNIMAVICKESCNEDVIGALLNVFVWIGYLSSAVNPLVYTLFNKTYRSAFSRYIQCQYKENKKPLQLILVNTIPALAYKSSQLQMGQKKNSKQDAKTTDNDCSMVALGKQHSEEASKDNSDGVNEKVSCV

Structure (SMILES): CN(C)CCn1ccc2c(OCc3ccccc3)cccc21 (as salt: fumarate) [Example 8, 2-(4-(benzyloxy)-1H-indol-1-yl)-N,N-dimethylethan-1-amine]
- melting point: 145 to 150 °C

Structure (SMILES): CN(C)CCn1ccc2cc(OCc3ccccc3)ccc21 (as salt: fumarate) [Example 9, 2-(5-(benzyloxy)-1H-indol-1-yl)-N,N-dimethylethan-1-amine]
- melting point: 133 to 135 °C

Structure (SMILES): CN(C)CCn1ccc2c(F)cccc21 (as salt: fumarate) [Example 12, 2-(4-fluoro-1H-indol-1-yl)-N,N-dimethylethan-1-amine]
- melting point: 145 to 149 °C

Structure (SMILES): CN(C)CCn1ccc2cc(F)ccc21 (as salt: fumarate) [Example 13, 2-(5-fluoro-1H-indol-1-yl)-N,N-dimethylethan-1-amine]
- melting point: 145 to 148 °C

Structure (SMILES): CN(C)CCn1ccc2cccc(F)c21 (as salt: fumarate) [Example 15, 2-(7-fluoro-1H-indol-1-yl)-N,N-dimethylethan-1-amine]
- melting point: 168 to 170 °C

Structure (SMILES): CN(C)CCn1ccc2cc(F)c(F)cc21 (as salt: fumarate) [Example 17, 2-(5,6-difluoro-1H-indol-1-yl)-N,N-dimethylethan-1-amine]
- melting point: 162 to 165 °C

Structure (SMILES): CN(C)CCn1ccc2c(F)cc(F)cc21 (as salt: fumarate) [Example 18, 2-(4,6-difluoro-1H-indol-1-yl)-N,N-dimethylethan-1-amine]
- melting point: 141 to 145 °C

Structure (SMILES): CN(C)CCn1cccc1 (as salt: fumarate) [Example 23, N,N-dimethyl-2-(1H-pyrrol-1-yl)ethan-1-amine]
- melting point: 174 to 180 °C

Structure (SMILES): CN(C)CCc1cn(C)c2ccccc12 (as salt: fumarate) [Example 27, N,N-dimethyl-2-(1-methyl-1H-indol-3-yl)ethan-1-amine]
- melting point: 167 to 170 °C

Structure (SMILES): CN(C)CCn1ccc2ccccc21.O=C(O)/C=C/C(=O)O [Example 2, 2-(1H-indol-1-yl)-N,N-dimethylethan-1-amine]
- melting point: 147 to 149 °C
- Emax at 10 µM (cortical neurons; 10 μM): 87%
- psychoplastogenic efficacy and potency, concentration-response (Nmax) (cortical neurons; concentrations ranging from 10 μM to 10 pM (FIG. 6)): comparable maximum efficacies and had similar potencies as isosteric DMTs (1 and 28)
- dendritic arbor complexity / neuronal growth (Nmax of Sholl plots) (cortical neurons; cortical neurons, 10 μM): increase dendritic arbor complexity to a comparable extent as DMT (1); also recorded: increased dendritic arbor complexity to a comparable extent as 1

Structure (SMILES): CN(C)CCn1ccc2ccc(F)cc21.O=C(O)/C=C/C(=O)O [Example 14, 2-(6-fluoro-1H-indol-1-yl)-N,N-dimethylethan-1-amine]
- melting point: 141 to 147 °C
- Emax at 10 µM (cortical neurons; 10 μM): 88%

Structure (SMILES): Cc1cn(C[C@@H](C)N(C)C)c2ccc(F)cc12 [Example 74, (R)-1-(5-fluoro-3-methyl-1H-indol-1-yl)-N,N-dimethylpropan-2-amine]
- 5HT2A Agonist mean @ 100 nM (%) (5HT2A sensor [1]): B (does not activate 5HT2A sensor assay in agonist mode)
- 5HT2A Agonist mean @ 10 μM (%) (5HT2A sensor [1]): B (does not activate 5HT2A sensor assay in agonist mode)
- 5HT2A Agonist mean @ 100 μM (%) (5HT2A sensor [1]): B (does not activate 5HT2A sensor assay in agonist mode)
- fold induction at 10 µM (rat cortical neurons; [3]): 1.5 to 3
- fold induction at 10 µM (rat cortical neurons; [4]): 1.5 to 3
- 5HT2A Antagonist mean @ 100 nM (%) (5HT2A sensor [2]): A (inhibits 5HT response by >100%)
- 5HT2A Antagonist mean @ 10 μM (%) (5HT2A sensor [2]): A (inhibits 5HT response by >100%)
- 5HT2A Antagonist mean @ 100 μM (%) (5HT2A sensor [2]): B (inhibits 5HT response by 75% to 100%)
- EC50 (5HT2A): > 10 µM

Structure (SMILES): CC[C@H](Cn1ccc2cc(OC)ccc21)N(C)C [Example 75, (R)-1-(5-methoxy-1H-indol-1-yl)-N,N-dimethylbutan-2-amine]
- 5HT2A Agonist mean @ 100 nM (%) (5HT2A sensor [1]): B (does not activate 5HT2A sensor assay in agonist mode)
- 5HT2A Agonist mean @ 10 μM (%) (5HT2A sensor [1]): B (does not activate 5HT2A sensor assay in agonist mode)
- 5HT2A Agonist mean @ 100 μM (%) (5HT2A sensor [1]): B (does not activate 5HT2A sensor assay in agonist mode)
- fold induction at 10 µM (rat cortical neurons; [3]): < 1.5
- fold induction at 10 µM (rat cortical neurons; [4]): < 1.5
- 5HT2A Antagonist mean @ 100 nM (%) (5HT2A sensor [2]): A (inhibits 5HT response by >100%)
- 5HT2A Antagonist mean @ 10 μM (%) (5HT2A sensor [2]): A (inhibits 5HT response by >100%)
- 5HT2A Antagonist mean @ 100 μM (%) (5HT2A sensor [2]): A (inhibits 5HT response by >100%)
- EC50 (5HT2A): > 10 µM

Structure (SMILES): CC[C@@H](Cn1ccc2cc(OC)ccc21)N(C)C [Example 76, (S)-1-(5-methoxy-1H-indol-1-yl)-N,N-dimethylbutan-2-amine]
- 5HT2A Agonist mean @ 100 nM (%) (5HT2A sensor [1]): B (does not activate 5HT2A sensor assay in agonist mode)
- 5HT2A Agonist mean @ 10 μM (%) (5HT2A sensor [1]): B (does not activate 5HT2A sensor assay in agonist mode)
- 5HT2A Agonist mean @ 100 μM (%) (5HT2A sensor [1]): B (does not activate 5HT2A sensor assay in agonist mode)
- fold induction at 10 µM (rat cortical neurons; [3]): 1.5 to 3
- fold induction at 10 µM (rat cortical neurons; [4]): 1.5 to 3
- 5HT2A Antagonist mean @ 100 nM (%) (5HT2A sensor [2]): A (inhibits 5HT response by >100%)
- 5HT2A Antagonist mean @ 10 μM (%) (5HT2A sensor [2]): A (inhibits 5HT response by >100%)
- 5HT2A Antagonist mean @ 100 μM (%) (5HT2A sensor [2]): A (inhibits 5HT response by >100%)
- EC50 (5HT2A): > 10 µM

Structure (SMILES): COc1ccc2c(ccn2CCN2CC3(COC3)C2)c1 [Example 84, 6-(2-(5-methoxy-1H-indol-1-yl)ethyl)-2-oxa-6-azaspiro[3.3]heptane]
- 5HT2A Agonist mean @ 100 nM (%) (5HT2A sensor [1]): B (does not activate 5HT2A sensor assay in agonist mode)
- 5HT2A Agonist mean @ 10 μM (%) (5HT2A sensor [1]): B (does not activate 5HT2A sensor assay in agonist mode)
- 5HT2A Agonist mean @ 100 μM (%) (5HT2A sensor [1]): A (activates 5HT2A sensor assay in agonist mode)
- fold induction at 10 µM (rat cortical neurons; [3]): 1.5 to 3
- fold induction at 10 µM (rat cortical neurons; [4]): 1.5 to 3
- 5HT2A Antagonist mean @ 100 nM (%) (5HT2A sensor [2]): B (inhibits 5HT response by 75% to 100%)
- 5HT2A Antagonist mean @ 10 μM (%) (5HT2A sensor [2]): B (inhibits 5HT response by 75% to 100%)
- 5HT2A Antagonist mean @ 100 μM (%) (5HT2A sensor [2]): B (inhibits 5HT response by 75% to 100%)
- EC50 (5HT2A): > 10 µM
